Data reported in patent EP4596574A1, “GLP-1/GCG/GIP TRIPLE-RECEPTOR AGONIST AND USE THEREOF” (Sunshine Lake Pharma Co., Ltd., priority 2022, dated 2024).
Starred links: 1 amine or outer side, 2 acyl side, 3 side chain; linkers in the order of their positions; H or OH if unused. Non-standard residues stand in square brackets, D forms with d. Residues, ends and D or L forms follow the SMILES beside them. Groups on a side chain read outwards from the residue. *: point of attachment. C20 diacid = O=C(O)CCCCCCCCCCCCCCCCCCC(=O)*; C18 diacid = O=C(O)CCCCCCCCCCCCCCCCC(=O)*; αMePhe(2-F) = C[C@](N)(Cc1ccccc1F)C(=O)O; γGlu = O=C(O)[C@H](CCC(=O)[*:2])N[*:1]; AEEA = NCCOCCOCC(=O)O; Aib = CC(C)(N)C(=O)O

Legend:
Type in all cases: cell-based
GLP-1R = target: T1, GLP-1R (Homo sapiens, UniProt P43220); assay: In vitro cell activity, cAMP production in HEK293 cells expressing GLP-1R; settings: HEK293-GLP-1R cells, cAMP; read-out: GLP-1R (EC50)
T1 construct: expressed in transfected cells; host or cells: HEK293 (HEK293-GLP-1R)
T1 sequence (P43220 24-463, species assumed): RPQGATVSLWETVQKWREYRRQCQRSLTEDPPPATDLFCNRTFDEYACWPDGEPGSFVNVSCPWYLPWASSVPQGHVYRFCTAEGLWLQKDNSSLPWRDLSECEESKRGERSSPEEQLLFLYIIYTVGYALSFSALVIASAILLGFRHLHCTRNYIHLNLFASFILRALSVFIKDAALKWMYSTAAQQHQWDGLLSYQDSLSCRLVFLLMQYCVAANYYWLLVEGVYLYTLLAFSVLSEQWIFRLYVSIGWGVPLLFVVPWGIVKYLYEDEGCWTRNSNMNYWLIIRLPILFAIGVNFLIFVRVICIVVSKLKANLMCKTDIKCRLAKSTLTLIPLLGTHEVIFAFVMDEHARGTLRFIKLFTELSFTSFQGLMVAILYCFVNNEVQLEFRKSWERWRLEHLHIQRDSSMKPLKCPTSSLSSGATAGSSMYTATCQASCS
Protocol: (§1) After they were completely thawed within 1.5 minutes, the cells were added dropwise into a 15 mL centrifuge tube containing 8 mL of warm culture medium in a clean bench. The tubes were centrifuged at 900 rpm for 5 minutes, the supernatant was discarded, and the cells were resuspended in 1 mL of complete culture medium (by pipetting 15 times). 20 µL of the suspension was immediately taken and mixed with an equal volume of trypan blue. 20 µL was taken to count the number of live cells, and the cells were diluted to 4×10^5 cells/mL with complete culture medium. • 4) The 384-well plate was divided into GLP-1R cell, GCGR cell and GIPR cell areas. The cell suspension was added to the wells of the corresponding area at 5 µL per well using a 12-channel variable-channel adjustable dispenser. […] Then, the diluted cAMP-d2 working solution and anti-cAMP-crytate working solution were mixed evenly in a ratio of 1:1, and 10 µL was added to each well of the sample group. The wells were covered with white lids and placed at room temperature in the dark for 1 hour or at 4 °C overnight. • 6) The fluorescence values at 665 nm and 620 nm were detected in a multifunctional microplate reader. In GraphPad Prism 6, the signal ratio and sample concentration were nonlinearly fitted using a four-parameter equation to obtain the EC50 value.

GCGR = target: T2, GCGR (Homo sapiens, UniProt P47871); assay: In vitro cell activity, cAMP production in HEK293 cells expressing GCGR; settings: HEK293-GCGR cells, cAMP; read-out: GCGR (EC50)
T2 construct: expressed in transfected cells; host or cells: HEK293 (HEK293-GCGR)
T2 sequence (P47871 26-477, species assumed): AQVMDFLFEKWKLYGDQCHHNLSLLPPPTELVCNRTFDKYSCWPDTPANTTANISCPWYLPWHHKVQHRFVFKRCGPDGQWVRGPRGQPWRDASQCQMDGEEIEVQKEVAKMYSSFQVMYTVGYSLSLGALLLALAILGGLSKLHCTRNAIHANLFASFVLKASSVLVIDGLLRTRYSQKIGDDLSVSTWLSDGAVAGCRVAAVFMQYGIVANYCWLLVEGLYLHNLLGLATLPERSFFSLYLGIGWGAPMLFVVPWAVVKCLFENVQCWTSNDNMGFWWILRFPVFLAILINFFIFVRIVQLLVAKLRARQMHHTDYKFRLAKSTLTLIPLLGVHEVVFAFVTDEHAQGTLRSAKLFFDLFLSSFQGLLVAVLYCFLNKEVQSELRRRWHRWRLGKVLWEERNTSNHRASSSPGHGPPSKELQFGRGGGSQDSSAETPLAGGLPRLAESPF
Protocol: as §1

GIPR = target: T3, GIPR (Homo sapiens, UniProt P48546); assay: In vitro cell activity, cAMP production in HEK293 cells expressing GIPR; settings: HEK293-GIPR cells, cAMP; read-out: GIPR (EC50)
T3 construct: expressed in transfected cells; host or cells: HEK293 (HEK293-GIPR)
T3 sequence (P48546 22-466): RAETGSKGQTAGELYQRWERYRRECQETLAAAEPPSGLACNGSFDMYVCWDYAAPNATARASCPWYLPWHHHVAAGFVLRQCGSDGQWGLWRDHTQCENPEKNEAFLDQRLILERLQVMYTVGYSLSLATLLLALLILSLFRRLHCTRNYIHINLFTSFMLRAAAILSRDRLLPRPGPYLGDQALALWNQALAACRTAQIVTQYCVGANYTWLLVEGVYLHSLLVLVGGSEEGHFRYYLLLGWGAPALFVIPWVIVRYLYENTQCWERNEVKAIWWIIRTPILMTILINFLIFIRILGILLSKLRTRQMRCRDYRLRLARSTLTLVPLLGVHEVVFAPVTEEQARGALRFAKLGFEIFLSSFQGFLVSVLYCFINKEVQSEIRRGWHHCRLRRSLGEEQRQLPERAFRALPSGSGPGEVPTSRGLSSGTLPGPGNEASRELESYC
Protocol: as §1, with “The wells were covered with white lids and placed at room temperature in the dark for 1 hour or at 4 °C overnight. • 6) The fluorescence values at 665 nm and 620 nm were detected in a multifunctional microplate reader.” left out

Row | SMILES | EC50 (GLP-1R) [pM] | EC50 (GCGR) [pM] | EC50 (GIPR) [pM]
1 | CC[C@H](C)[C@H](NC(=O)[C@H](CO)NC(=O)[C@H](Cc1ccc(O)cc1)NC(=O)[C@H](CC(=O)O)NC(=O)[C@H](CO)NC(=O)[C@@H](NC(=O)[C@](C)(Cc1ccccc1F)NC(=O)[C@@H](NC(=O)CNC(=O)[C@H](CCC(N)=O)NC(=O)C(C)(C)NC(=O)[C@@H](N)Cc1ccc(O)cc1)[C@@H](C)O)[C@@H](C)O)C(=O)N[C@@H](CC(C)C)C(=O)N[C@@H](CCCCNC(=O)COCCOCCNC(=O)CC[C@H](NC(=O)CCCCCCCCCCCCCCCCC(=O)O)C(=O)O)C(=O)N[C@@H](CC(=O)O)C(=O)N[C@@H](CCCNC(=N)N)C(=O)N[C@@H](CCCNC(=N)N)C(=O)N[C@@H](C)C(=O)N[C@@H](CCC(N)=O)C(=O)N[C@@H](CCC(N)=O)C(=O)N[C@@H](C)C(=O)N[C@@H](Cc1ccccc1)C(=O)N[C@H](C(=O)N[C@@H](CCC(=O)O)C(=O)N[C@@H](Cc1ccc(O)cc1)C(=O)N[C@@H](CC(C)C)C(=O)N[C@@H](CC(C)C)C(=O)N[C@@H](CCC(=O)O)C(=O)NCC(=O)NCC(=O)N1CCC[C@H]1C(=O)N[C@@H](CO)C(=O)N[C@@H](CO)C(=O)NCC(=O)N[C@@H](C)C(=O)N1CCC[C@H]1C(=O)N1CCC[C@H]1C(=O)N1CCC[C@H]1C(=O)N[C@@H](CO)C(=O)O)C(C)C [HEC-PT149] (H-Y[Aib]QGT[αMePhe(2-F)]TSDYSILK([AEEA-γGlu-C18 diacid])DRRAQQAFVEYLLEGGPSSGAPPPS-OH) | 86.8 | 138 | 264
2 | CC[C@H](C)[C@H](NC(=O)[C@H](Cc1ccccc1)NC(=O)[C@H](C)NC(=O)[C@H](CCCCN)NC(=O)[C@H](CCC(N)=O)NC(=O)[C@H](CCCCN)NC(=O)[C@H](CCCCNC(=O)COCCOCCNC(=O)CC[C@H](NC(=O)CCCCCCCCCCCCCCCCC(=O)O)C(=O)O)NC(=O)[C@H](CCC(=O)O)NC(=O)[C@H](CC(=O)O)NC(=O)[C@H](CC(C)C)NC(=O)[C@H](CC(C)C)NC(=O)[C@@H](NC(=O)[C@H](CO)NC(=O)[C@H](Cc1ccc(O)cc1)NC(=O)[C@H](CC(=O)O)NC(=O)[C@H](CO)NC(=O)[C@@H](NC(=O)[C@](C)(Cc1ccccc1F)NC(=O)[C@@H](NC(=O)CNC(=O)[C@H](CCC(N)=O)NC(=O)C(C)(C)NC(=O)[C@@H](N)Cc1ccc(O)cc1)[C@@H](C)O)[C@@H](C)O)[C@@H](C)CC)C(=O)N[C@@H](CCC(=O)O)C(=O)N[C@@H](Cc1ccc(O)cc1)C(=O)N[C@@H](CC(C)C)C(=O)N[C@@H](CC(C)C)C(=O)N[C@@H](C)C(=O)NCC(=O)NCC(=O)N1CCC[C@H]1C(=O)N[C@@H](CO)C(=O)N[C@@H](CO)C(=O)NCC(=O)N[C@@H](C)C(=O)N1CCC[C@H]1C(=O)N1CCC[C@H]1C(=O)N1CCC[C@H]1C(=O)N[C@@H](CO)C(N)=O [HEC-PT130] | 170 | 4860 | 541
3 | CC[C@H](C)[C@H](NC(=O)[C@H](Cc1ccccc1)NC(=O)[C@H](C)NC(=O)[C@H](CCC(N)=O)NC(=O)[C@H](C)NC(=O)[C@H](CCCNC(=N)N)NC(=O)[C@H](CCCCNC(=O)COCCOCCNC(=O)CC[C@H](NC(=O)CCCCCCCCCCCCCCCCCCC(=O)O)C(=O)O)NC(=O)[C@H](CCC(=O)O)NC(=O)[C@H](CC(=O)O)NC(=O)[C@H](CC(C)C)NC(=O)[C@H](CC(C)C)NC(=O)[C@@H](NC(=O)[C@H](CO)NC(=O)[C@H](Cc1ccc(O)cc1)NC(=O)[C@H](CC(=O)O)NC(=O)[C@H](CO)NC(=O)[C@@H](NC(=O)[C@](C)(Cc1ccccc1F)NC(=O)[C@@H](NC(=O)CNC(=O)[C@H](CCC(N)=O)NC(=O)C(C)(C)NC(=O)[C@@H](N)Cc1ccc(O)cc1)[C@@H](C)O)[C@@H](C)O)[C@@H](C)CC)C(=O)N[C@@H](CCC(=O)O)C(=O)N[C@@H](Cc1ccc(O)cc1)C(=O)N[C@@H](CC(C)C)C(=O)N[C@@H](CC(C)C)C(=O)N[C@@H](CCC(=O)O)C(=O)NCC(=O)NCC(=O)N1CCC[C@H]1C(=O)N[C@@H](CO)C(=O)N[C@@H](CO)C(=O)NCC(=O)N[C@@H](C)C(=O)N1CCC[C@H]1C(=O)N1CCC[C@H]1C(=O)N1CCC[C@H]1C(=O)N[C@@H](CO)C(=O)O [HEC-PT94] | 541 | 44.2 | 1300
4 | CC[C@H](C)[C@H](NC(=O)[C@H](Cc1ccccc1)NC(=O)[C@H](C)NC(=O)[C@H](CCC(N)=O)NC(=O)[C@H](CCC(N)=O)NC(=O)[C@H](C)NC(=O)[C@H](CCCCNC(=O)COCCOCCNC(=O)CC[C@H](NC(=O)CCCCCCCCCCCCCCCCC(=O)O)C(=O)O)NC(=O)[C@H](CCCNC(=N)N)NC(=O)[C@H](CC(=O)O)NC(=O)[C@H](CC(C)C)NC(=O)[C@H](CC(C)C)NC(=O)[C@@H](NC(=O)[C@H](CO)NC(=O)[C@H](Cc1ccc(O)cc1)NC(=O)[C@H](CC(=O)O)NC(=O)[C@H](CO)NC(=O)[C@@H](NC(=O)[C@](C)(Cc1ccccc1F)NC(=O)[C@@H](NC(=O)CNC(=O)[C@H](Cc1c[nH]cn1)NC(=O)C(C)(C)NC(=O)[C@@H](N)Cc1c[nH]cn1)[C@@H](C)O)[C@@H](C)O)[C@@H](C)CC)C(=O)N[C@@H](CCC(=O)O)C(=O)N[C@@H](Cc1ccc(O)cc1)C(=O)N[C@@H](CC(C)C)C(=O)N[C@@H](CC(C)C)C(=O)N[C@@H](C)C(=O)NCC(=O)NCC(=O)N1CCC[C@H]1C(=O)N[C@@H](CO)C(=O)N[C@@H](CO)C(=O)NCC(=O)N[C@@H](C)C(=O)N1CCC[C@H]1C(=O)N1CCC[C@H]1C(=O)N1CCC[C@H]1C(=O)N[C@@H](CO)C(=O)O [HEC-PT153] | 75.2 | 12.6 | 16.9
5 | CC[C@H](C)[C@H](NC(=O)[C@H](CCC(=O)O)NC(=O)[C@H](CC(=O)O)NC(=O)[C@H](CC(C)C)NC(=O)[C@H](CC(C)C)NC(=O)[C@@H](NC(=O)[C@H](CO)NC(=O)[C@H](Cc1ccc(O)cc1)NC(=O)[C@H](CC(=O)O)NC(=O)[C@H](CO)NC(=O)[C@@H](NC(=O)[C@](C)(Cc1ccccc1F)NC(=O)[C@@H](NC(=O)CNC(=O)[C@H](CCC(N)=O)NC(=O)C(C)(C)NC(=O)[C@@H](N)Cc1c[nH]cn1)[C@@H](C)O)[C@@H](C)O)[C@@H](C)CC)C(=O)N[C@@H](C)C(=O)N[C@@H](CCC(N)=O)C(=O)N[C@@H](CCCCNC(=O)COCCOCCNC(=O)COCCOCCNC(=O)CC[C@H](NC(=O)CCCCCCCCCCCCCCCCCCC(=O)O)C(=O)O)C(=O)N[C@@H](CC(=O)O)C(=O)N[C@@H](Cc1ccccc1)C(=O)N[C@H](C(=O)N[C@@H](CCC(=O)O)C(=O)N[C@@H](Cc1c[nH]c2ccccc12)C(=O)N[C@@H](CC(C)C)C(=O)N[C@@H](CC(C)C)C(=O)N[C@@H](CCC(=O)O)C(=O)NCC(=O)NCC(=O)N1CCC[C@H]1C(=O)N[C@@H](CO)C(=O)N[C@@H](CO)C(=O)NCC(=O)N[C@@H](C)C(=O)N1CCC[C@H]1C(=O)N1CCC[C@H]1C(=O)N1CCC[C@H]1C(=O)N[C@@H](CO)C(=O)O)[C@@H](C)CC [HEC-PT67] (H-H[Aib]QGT[αMePhe(2-F)]TSDYSILLDEIAQK([AEEA-AEEA-γGlu-C20 diacid])DFIEWLLEGGPSSGAPPPS-OH) | 679 | 57000 | 402
